ChEMBL document CHEMBL1201862, “PubChem BioAssay data set” (2004)
Calls of active or inactive are those of the source.

Experiments:
[1] = A549 cell cytotoxicity, dose response, cytotoxicity control, plate reader, cherry-pick, antagonist series (AID 743412); type: functional, cell-based
[2] = blockade of melanocortin 4 receptor signaling – cell-based, plate reader, cherry pick, counter-screen for LGR2 antagonist project, dose response (AID 743444); type: functional;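 also: transfected HEK 293 cells stimulated with alpha-MSH peptide; potency of inhibitors of the alpha-MSH evoked signal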
[3] = toxicity toward HepG2 liver cells – cell-based, plate reader, cherry-pick, antagonist series, cytotoxicity control, dose response (AID 743416); type: functional
[4] = blockers of bursicon-stimulated LGR2 cAMP reporter – cell-based, HEK293, CRE-luciferase reporter, cherry pick, set 2, dose response (AID 743343); type: functional;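 also: transfected cells were stimulated with diluted bursicon conditioned medium after compound addition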
[5] = Luminescence-based counterscreen assay for KLF5 inhibitors: dose response cell-based high throughput screening assay to identify cytotoxic compounds using the IEC-6 intestinal epithelial cell line. [Related pubchem assays: 1700 (Primary screen.), 1834 (Confirmation screen.), 1858 (Summary AID.), 1905 (Counterscreen.)]; type: functional

**Q.** Which AC50 [1] does the source give for COc1ccc(Cl)cc1C(=O)Nc1nc2ccccc2[nH]1 here?
**A.** > 52 µM (inactive)

**Q.** And the AC50 [2]?
**A.** 2.46 µM (active)

**Q.** What about the AC50 [3] of the same compound?
**A.** > 52 µM (inactive)

**Q.** And the AC50 [4]?
**A.** 2.05 µM (active)

**Q.** And the IC50 [5]?
**A.** > 39.8 µM (not active)
